# Data reported in ChEMBL document CHEMBL1147993, “Inhibitory effect of obovatal on the migration and invasion of HT1080 cells via the inhibition of MMP-2” (Bioorg Med Chem, 2007).
# pIC50: −log10 of the molar value. The source made the active and inactive calls. The rule behind the calls is not given here.
# Legend:
# HFF = test: Effect on growth of HFF cells after 48 hrs by WST1 reduction assay; assay type: cell-based; settings: human
# [1] = biological target: T1, 72 kDa type IV collagenase (Homo sapiens, UniProt P08253); test: Inhibition of MMP2 expressed in insect cells
# Target sequence in this assay (P08253 whole entry): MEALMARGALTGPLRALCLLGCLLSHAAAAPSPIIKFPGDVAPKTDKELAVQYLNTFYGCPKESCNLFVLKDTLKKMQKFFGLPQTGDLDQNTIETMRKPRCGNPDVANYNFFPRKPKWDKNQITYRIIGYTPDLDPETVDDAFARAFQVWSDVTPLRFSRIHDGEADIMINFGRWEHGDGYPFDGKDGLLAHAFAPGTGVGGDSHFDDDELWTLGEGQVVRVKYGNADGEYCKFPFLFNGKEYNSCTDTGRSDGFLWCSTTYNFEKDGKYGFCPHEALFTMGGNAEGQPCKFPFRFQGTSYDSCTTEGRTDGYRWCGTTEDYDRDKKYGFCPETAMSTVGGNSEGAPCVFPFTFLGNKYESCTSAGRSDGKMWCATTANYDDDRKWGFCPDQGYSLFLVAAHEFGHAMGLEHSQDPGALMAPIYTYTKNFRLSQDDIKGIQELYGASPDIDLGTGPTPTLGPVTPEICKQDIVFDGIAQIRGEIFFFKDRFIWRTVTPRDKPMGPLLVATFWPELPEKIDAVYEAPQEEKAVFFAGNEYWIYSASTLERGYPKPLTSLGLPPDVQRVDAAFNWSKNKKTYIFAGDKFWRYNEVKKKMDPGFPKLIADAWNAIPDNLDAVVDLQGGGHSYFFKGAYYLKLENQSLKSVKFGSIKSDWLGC
# HT-1080 [2] = test: Reduction of MMP2 mRNA expression in HT1080 cells at 20 uM by RT-PCR; assay type: functional, Homo sapiens; design: scale not given: the % may be the effect or the level left
# HCT-116 = test: Growth inhibition of HCT116 cells up to 50 uM after 48 hrs by WST1 reduction assay; assay type: functional, cell-based; settings: Homo sapiens
# HT-1080 [3] = test: Inhibition of migration of HT1080 cells at 20 uM by wound healing assay; assay type: functional, cell-based; settings: Homo sapiens
# HT-1080 [4] = test: Inhibition of invasion of HT1080 cells at 20 uM after 24 hrs by Matrigel invasion assay relative to control; assay type: functional; settings: Homo sapiens, HT-1080, 24 h
# HT-1080 [5] = test: Reduction of MMP2 protein expression in HT1080 cells at 20 uM ny Western blot; assay type: functional, Homo sapiens; design: scale not given: the % may be the effect or the level left
# [6] = biological target: T1, 72 kDa type IV collagenase; test: Inhibition of MMP2 in HT1080 cells at 15 uM by gelatin zymography assay; assay type: cell-based; settings: HT-1080
# Target sequence in this assay (P08253 110-660 limits assumed): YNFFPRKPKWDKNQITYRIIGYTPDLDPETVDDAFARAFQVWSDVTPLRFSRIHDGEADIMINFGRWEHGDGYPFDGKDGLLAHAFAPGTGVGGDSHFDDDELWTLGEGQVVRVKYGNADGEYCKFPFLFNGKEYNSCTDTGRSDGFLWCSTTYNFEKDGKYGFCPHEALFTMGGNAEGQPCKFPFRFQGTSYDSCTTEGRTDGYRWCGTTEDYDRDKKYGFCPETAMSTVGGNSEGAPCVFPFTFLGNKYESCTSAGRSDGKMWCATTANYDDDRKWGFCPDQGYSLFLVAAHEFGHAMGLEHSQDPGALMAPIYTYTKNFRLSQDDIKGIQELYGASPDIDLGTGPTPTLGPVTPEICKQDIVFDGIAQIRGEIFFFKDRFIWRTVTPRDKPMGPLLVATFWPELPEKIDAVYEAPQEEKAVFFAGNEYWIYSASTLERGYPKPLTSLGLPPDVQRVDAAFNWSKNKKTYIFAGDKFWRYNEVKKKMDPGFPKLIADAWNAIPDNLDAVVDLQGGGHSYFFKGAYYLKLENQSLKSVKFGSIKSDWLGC
smiles,measurement,setting,value
C=CCc1ccc(Oc2cc(/C=C/C=O)cc(O)c2O)cc1 [OBOVATAL],Activity,HFF,Non-toxic
same,pIC50,[1],6.10
same,Activity,HT-1080 [2],70%
same,Activity,HCT-116,Active
same,Activity,HT-1080 [3],Active
same,inhibition at 20 µM,HT-1080 [4],70%
same,Activity,HT-1080 [5],70%
same,Activity,[6],Active
